According to patent publication US20240398737A1, “FUNCTIONALIZED LONG-CHAIN HYDROCARBON MONO- AND DI-CARBOXYLIC ACIDS AND DERIVATIVES THEREOF, AND THEIR USE FOR THE PREVENTION OR TREATMENT OF DISEASE” (Espervita Therapeutics, Inc., priority 2021, published 2024):
Like-named read-outs stand apart in the source and are kept apart here.

Experiments:
[1] = biological target: Aurora B (Homo sapiens (Human), UniProt Q96GD4); experiment: Wild type kinase screen: Aurora B; type: biochemical; details: compound at 10 μM, 10 μM ATP, Data 1 and Data 2 duplicates
Aurora B, sequence (Q96GD4 whole entry): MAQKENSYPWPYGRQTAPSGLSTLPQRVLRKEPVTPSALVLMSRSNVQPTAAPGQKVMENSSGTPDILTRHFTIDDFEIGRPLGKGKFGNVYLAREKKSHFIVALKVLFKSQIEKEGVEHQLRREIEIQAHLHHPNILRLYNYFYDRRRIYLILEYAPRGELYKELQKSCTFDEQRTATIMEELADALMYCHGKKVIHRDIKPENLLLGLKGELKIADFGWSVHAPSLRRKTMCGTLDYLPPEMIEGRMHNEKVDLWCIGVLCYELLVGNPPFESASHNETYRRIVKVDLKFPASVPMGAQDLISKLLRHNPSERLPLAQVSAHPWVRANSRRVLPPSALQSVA

[2] = biological target: AURORA C (Homo sapiens (Human), UniProt Q9UQB9); experiment: Wild type kinase screen: AURORA C; type: biochemical; details: compound at 10 μM, 10 μM ATP, Data 1 and Data 2 duplicates
AURORA C, sequence (Q9UQB9 whole entry): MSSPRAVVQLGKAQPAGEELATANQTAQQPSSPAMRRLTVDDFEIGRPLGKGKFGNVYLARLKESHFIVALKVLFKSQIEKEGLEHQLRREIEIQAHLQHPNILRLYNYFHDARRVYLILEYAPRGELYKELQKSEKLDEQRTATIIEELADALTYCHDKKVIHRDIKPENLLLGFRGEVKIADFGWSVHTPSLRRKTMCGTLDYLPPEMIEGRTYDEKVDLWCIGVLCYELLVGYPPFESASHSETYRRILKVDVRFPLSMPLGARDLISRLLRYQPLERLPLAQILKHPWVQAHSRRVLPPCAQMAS

[3] = biological target: LIMK1 (Homo sapiens (Human), UniProt P53667); experiment: Wild type kinase screen: LIMK1; type: biochemical; details: compound at 10 μM, 10 μM ATP, Data 1 and Data 2 duplicates
LIMK1, sequence (P53667 whole entry, species assumed): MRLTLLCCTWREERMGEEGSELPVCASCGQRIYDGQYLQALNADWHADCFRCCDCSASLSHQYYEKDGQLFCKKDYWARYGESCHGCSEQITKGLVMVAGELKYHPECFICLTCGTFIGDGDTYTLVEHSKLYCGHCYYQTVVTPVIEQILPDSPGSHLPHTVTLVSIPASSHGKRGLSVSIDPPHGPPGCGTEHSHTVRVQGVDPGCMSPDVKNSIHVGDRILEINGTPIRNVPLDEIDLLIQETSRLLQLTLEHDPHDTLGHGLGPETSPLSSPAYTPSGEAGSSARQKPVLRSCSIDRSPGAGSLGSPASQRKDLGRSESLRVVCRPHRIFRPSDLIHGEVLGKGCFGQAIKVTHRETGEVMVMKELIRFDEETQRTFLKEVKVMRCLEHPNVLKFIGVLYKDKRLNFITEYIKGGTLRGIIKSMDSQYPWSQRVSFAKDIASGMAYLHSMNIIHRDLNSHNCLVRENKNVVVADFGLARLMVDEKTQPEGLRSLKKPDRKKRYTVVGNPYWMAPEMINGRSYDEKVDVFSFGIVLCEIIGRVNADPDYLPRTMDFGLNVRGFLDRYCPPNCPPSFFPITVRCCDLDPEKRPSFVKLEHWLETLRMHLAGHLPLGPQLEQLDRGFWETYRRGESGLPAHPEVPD

[4] = biological target: MLCK/MYLK (Homo sapiens (Human), UniProt Q15746); experiment: Wild type kinase screen: MLCK/MYLK; type: biochemical; details: compound at 10 μM, 10 μM ATP, Data 1 and Data 2 duplicates
[5] = biological target: RIPK4 (Homo sapiens (Human), UniProt P57078); experiment: Wild type kinase screen: RIPK4; type: biochemical; details: compound at 10 μM, 10 μM ATP, Data 1 and Data 2 duplicates
RIPK4, sequence (P57078 whole entry, species assumed): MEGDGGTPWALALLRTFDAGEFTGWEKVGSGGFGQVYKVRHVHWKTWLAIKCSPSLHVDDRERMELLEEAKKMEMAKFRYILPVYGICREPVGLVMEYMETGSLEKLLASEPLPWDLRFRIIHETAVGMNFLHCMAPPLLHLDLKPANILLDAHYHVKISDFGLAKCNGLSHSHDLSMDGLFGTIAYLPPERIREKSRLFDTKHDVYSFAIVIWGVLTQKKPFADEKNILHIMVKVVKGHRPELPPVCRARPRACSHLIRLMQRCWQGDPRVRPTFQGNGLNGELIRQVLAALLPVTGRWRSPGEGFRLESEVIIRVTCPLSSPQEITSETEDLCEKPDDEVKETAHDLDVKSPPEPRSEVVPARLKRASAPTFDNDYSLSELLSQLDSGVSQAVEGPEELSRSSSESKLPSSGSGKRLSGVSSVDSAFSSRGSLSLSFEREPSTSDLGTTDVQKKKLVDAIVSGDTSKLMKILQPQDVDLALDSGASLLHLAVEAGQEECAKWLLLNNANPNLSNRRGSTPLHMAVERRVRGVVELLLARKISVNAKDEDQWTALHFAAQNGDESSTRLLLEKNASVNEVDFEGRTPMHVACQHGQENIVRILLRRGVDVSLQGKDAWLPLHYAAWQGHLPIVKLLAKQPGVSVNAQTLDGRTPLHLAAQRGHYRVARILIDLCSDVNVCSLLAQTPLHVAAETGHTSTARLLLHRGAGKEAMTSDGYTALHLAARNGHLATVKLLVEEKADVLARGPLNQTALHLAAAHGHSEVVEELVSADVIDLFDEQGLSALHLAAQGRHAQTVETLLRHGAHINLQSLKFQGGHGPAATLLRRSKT

[6] = biological target: FLT1/VEGFR1 (Homo sapiens (Human), UniProt P17948); experiment: Wild type kinase screen: FLT1/VEGFR1; type: biochemical; details: compound at 10 μM, 10 μM ATP, Data 1 and Data 2 duplicates
FLT1/VEGFR1, sequence (P17948 27-1338): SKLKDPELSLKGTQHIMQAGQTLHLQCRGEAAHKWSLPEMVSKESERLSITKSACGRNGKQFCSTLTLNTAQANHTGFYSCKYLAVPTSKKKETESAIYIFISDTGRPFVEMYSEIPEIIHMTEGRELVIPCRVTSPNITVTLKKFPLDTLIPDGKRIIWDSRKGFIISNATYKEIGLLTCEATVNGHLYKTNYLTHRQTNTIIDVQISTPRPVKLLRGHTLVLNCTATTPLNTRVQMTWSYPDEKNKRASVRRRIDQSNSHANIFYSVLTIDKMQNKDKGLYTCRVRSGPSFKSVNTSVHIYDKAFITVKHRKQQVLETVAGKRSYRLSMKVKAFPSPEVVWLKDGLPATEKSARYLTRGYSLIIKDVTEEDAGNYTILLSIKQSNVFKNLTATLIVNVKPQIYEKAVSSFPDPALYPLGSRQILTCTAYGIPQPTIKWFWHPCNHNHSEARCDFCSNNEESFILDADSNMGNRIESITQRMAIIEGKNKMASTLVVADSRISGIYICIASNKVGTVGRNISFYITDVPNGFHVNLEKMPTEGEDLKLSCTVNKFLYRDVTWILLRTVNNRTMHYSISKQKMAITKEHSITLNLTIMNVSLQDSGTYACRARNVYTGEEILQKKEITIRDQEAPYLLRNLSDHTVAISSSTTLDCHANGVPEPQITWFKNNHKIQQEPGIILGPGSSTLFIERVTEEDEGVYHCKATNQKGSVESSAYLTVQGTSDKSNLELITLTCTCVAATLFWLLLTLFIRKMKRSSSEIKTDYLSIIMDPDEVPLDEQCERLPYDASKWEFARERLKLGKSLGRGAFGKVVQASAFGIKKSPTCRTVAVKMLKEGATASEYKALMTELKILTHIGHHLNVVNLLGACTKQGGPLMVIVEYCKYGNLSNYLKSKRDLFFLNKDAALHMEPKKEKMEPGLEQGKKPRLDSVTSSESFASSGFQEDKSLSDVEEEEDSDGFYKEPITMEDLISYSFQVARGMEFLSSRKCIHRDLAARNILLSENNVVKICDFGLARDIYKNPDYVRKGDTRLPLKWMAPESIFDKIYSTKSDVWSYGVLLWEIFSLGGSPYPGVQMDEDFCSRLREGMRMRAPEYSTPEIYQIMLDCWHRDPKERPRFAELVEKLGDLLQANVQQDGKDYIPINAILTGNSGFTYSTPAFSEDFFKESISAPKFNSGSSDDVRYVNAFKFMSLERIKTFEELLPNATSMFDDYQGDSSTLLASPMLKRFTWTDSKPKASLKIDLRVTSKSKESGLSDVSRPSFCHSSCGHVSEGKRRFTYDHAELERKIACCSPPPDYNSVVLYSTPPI

[7] = biological target: human ACLY (Homo sapiens (Human), UniProt P53396); experiment: ATP-citrate lyase (ACLY) enzymatic assay (ADP-Glo); type: biochemical; design: key to Compound IC50 (M) ACLY: *: No detectable inhibition or compound activity; details: recombinant human ACLY; 10 concentrations from 300 μM; Runs 1-3
human ACLY, sequence (P53396 whole entry): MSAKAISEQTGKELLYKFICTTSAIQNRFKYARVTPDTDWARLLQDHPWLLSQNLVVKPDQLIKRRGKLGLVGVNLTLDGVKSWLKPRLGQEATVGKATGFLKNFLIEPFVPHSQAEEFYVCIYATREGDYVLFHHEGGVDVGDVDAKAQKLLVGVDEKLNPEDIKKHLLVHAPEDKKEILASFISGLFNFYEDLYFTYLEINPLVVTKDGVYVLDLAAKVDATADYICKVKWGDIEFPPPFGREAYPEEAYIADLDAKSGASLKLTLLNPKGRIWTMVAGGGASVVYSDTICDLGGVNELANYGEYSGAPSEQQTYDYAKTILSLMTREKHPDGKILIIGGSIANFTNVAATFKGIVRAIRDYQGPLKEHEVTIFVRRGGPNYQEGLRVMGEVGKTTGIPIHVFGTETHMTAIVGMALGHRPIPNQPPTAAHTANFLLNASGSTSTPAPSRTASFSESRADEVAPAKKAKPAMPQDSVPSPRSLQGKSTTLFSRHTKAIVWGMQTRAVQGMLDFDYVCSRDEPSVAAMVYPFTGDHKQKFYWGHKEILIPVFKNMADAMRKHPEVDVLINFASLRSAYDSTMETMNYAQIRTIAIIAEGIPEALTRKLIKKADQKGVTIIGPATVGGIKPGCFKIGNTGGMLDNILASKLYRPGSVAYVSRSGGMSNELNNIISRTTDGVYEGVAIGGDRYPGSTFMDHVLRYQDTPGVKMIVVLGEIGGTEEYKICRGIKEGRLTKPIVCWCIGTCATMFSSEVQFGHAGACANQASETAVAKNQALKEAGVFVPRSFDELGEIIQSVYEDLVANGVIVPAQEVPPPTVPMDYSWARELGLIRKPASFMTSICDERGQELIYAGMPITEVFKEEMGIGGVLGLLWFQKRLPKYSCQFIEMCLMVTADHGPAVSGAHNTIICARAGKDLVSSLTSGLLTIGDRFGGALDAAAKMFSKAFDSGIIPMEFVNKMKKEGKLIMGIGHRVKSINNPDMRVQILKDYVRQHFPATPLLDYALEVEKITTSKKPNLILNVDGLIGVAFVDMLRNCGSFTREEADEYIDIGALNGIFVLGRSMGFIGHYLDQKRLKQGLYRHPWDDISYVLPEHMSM
Method: ATP citrate lyase was obtained from Sino Biological Inc. Cat #11769-H07B, Lot #LC08DE1701. It was prepared from a DNA sequence encoding the human ACLY (P53396) (Met 1-Met 1101) expressed in Baculovirus-Insect Cells, with a polyhistidine tag at the N-terminus. The recombinant human ACLY consists of 1120 amino acids and has a calculated molecular mass of 123 kDa. It migrates as an approximately 110 kDa band in SDS-PAGE under reducing conditions. The enzyme came as a lyophilized powder in sterile 20 mM Tris, 500 mM NaCl, pH 8.0, 10% glycine. Normally 5%-8% trehalose and mannitol are added as protectants before lyophilization. The recombinant human ACLY from Sino Biological was formulated in 45 mM Tris-HCl, pH 8.0, 124 mM NaCl, 2.4 mM KCl, 18 mM glutathione, 10% glycerol, and 3 mM DTT.
To detect ADP produced from ACL assay, the ADP-Glo™ assay format from Promega, Madison, WI, was used, to detect the conversion of ATP to ADP. […] This assay is performed in two steps: i) after the ACL-mediated enzymatic reaction that utilizes ATP and produces ADP, ADP-Glo™ Reagent is added to terminate the kinase reaction and deplete the remaining ATP, and ii) the Kinase Detection Reagent is added to convert ADP to ATP and allow the newly synthesized ATP to be measured using a luciferase/luciferin reaction. The light generated, measured in a luminometer, correlates to the amount of ADP generated in the ACL assay, which is indicative of ACL activity.
Data represent nM or μM ADP produced, % Activity (relative to no inhibitor controls), and curve fits were performed by GraphPad Prism software. The IC50 concentration-response curves were generated for ADPGlo™ using recombinant human ACL from Sino Biologicals Inc.

[8] = Toxicokinetics in female rats (4-day oral gavage study, Day 1); type: in vivo; details: female rat plasma; for Dose proportionality of the increases in mean Cmax and AUC0-24: 100 to 300 mg/kg/day; for Cmax / Tmax / AUC(0-t): Wistar Han (RccHan:WIST); for Cmax / Tmax / AUC(0-t) / AUC0-24 (h*ng/mL): Day 1; for AUC(0-t): read-out: AUC0-24
Method: Dosing Solutions. The dosing solutions of Compound I-1 or Compound I-32 were prepared as follows: a 60-mg/mL stock solution was prepared for Compound I-1 or Compound I-32 by dissolving Compound I-1 or Compound I-32 in DI water. Two molar equivalents of NaOH was added for every 1 mole of Compound I-1 or Compound I-32 (1.1 μL of 5N NaOH was added for every mg of Compound I-32 or Compound I-1). The pH of the stock solution for Compound I-1 or Compound I-32 was adjusted to achieve a final pH of 8.2 to 8.6. The resultant stock formulations were further diluted with vehicle to achieve the 30 mg/mL concentration. The 30-mg/mL formulations were diluted with control article to achieve the 10-mg/mL concentration. All dilution calculations were based on the nominal concentration of the stock solution. Formulations of Compound I-1 or Compound I-32 were prepared on the day of dosing were stored at room temperature (15 to 30° C.) and used within 8 hours of preparation completion. The control was 1.5% (w/v) carboxymethyl cellulose+0.2% (v/v) Tween 20 in DI water for as Group 1 formulations. The vehicle used for Compound I-1 and Compound I-32 formulations was 3% (w/v) carboxymethyl cellulose+0.4% (v/v) Tween 20 in DI water.
Bioanalytical and Toxicokinetic Analyses. Blood samples (approximately 0.3 mL) were collected from nonfasted toxicokinetic animals via a jugular vein on Day 1 of the dosing phase, as indicated in the following table. Samples were collected predose and approximately 1, 2, 4, and 24 hours postdose.
Blood was collected into tubes containing potassium (K2) EDTA as the anticoagulant. Samples were maintained on chilled cryoracks and were centrifuged within 1 hour of collection. Plasma was harvested into two approximately equal aliquots and stored on dry ice until placed in a freezer, set to maintain −60 to −80° C., until analyzed. Plasma samples were analyzed for Compound I-1 and Compound I-32 content using a generic Tier 1 qualified liquid chromatography-tandem mass spectrometry (LC-MS/MS) method.
In-Life Phase. Animals were dosed once daily for up to 4 days via oral gavage at a volume of 10 mL/kg. Animals in Group 2 and 3 were administered Compound I-1. Animals in Group 4 and 5 were administered Compound I-32. The control article for Group 1 was 1.5% (w/v) carboxymethyl cellulose+0.2% (v/v) Tween 20 in deionized (DI) water. The vehicle used to prepare Compound I-1 and Compound I-32 formulations was 3% (w/v) carboxymethyl cellulose+0.4% (v/v) Tween 20 in DI water.

Row | Compound | % Enzyme Activity (relative to DMSO controls) [1] [%] | % Enzyme Activity (relative to DMSO controls) [2] [%] | % Enzyme Activity (relative to DMSO controls) [3] [%] | % Enzyme Activity (relative to DMSO controls) [4] [%] | % Enzyme Activity (relative to DMSO controls) [5] [%] | % Enzyme Activity (relative to DMSO controls) [6] [%] | Compound IC50 (M) ACLY [7] | Dose proportionality of the increases in mean Cmax and AUC0-24 [8] | Cmax ([8]; 100 mg/kg/day oral gavage) [µg/mL] | Tmax ([8]; 100 mg/kg/day oral gavage) [h] | AUC(0-t) ([8]; 100 mg/kg/day oral gavage) [µg·h/mL] | Cmax ([8]; 300 mg/kg/day oral gavage) [µg/mL] | Tmax ([8]; 300 mg/kg/day oral gavage) [h] | AUC(0-t) ([8]; 300 mg/kg/day oral gavage) [µg·h/mL] | AUC0-24 (h*ng/mL) ([8]; 100 mg/kg/day oral gavage) | AUC0-24 (h*ng/mL) ([8]; 300 mg/kg/day oral gavage)
1 | CC(C)(CCCCc1ccc(CCCCC(C)(C)C(=O)O)cc1)C(=O)O [Compound I-1, 6-[4-(5-carboxy-5-methylhexyl)-phenyl]-2,2-dimethylhexanoic acid] | 63.21 | 93.1 | 71.9 | 106.34 | 42.78 | 87.88 | * | less than dose proportional | 415 | 2 | 5460 | 787 | 1 | 7520 | 5,460,000 h*ng/mL | –
2 | CC(C)(CCCCc1cccc(CCCCC(C)(C)C(=O)O)c1)C(=O)O [Compound I-32, 6-[3-(5-carboxy-5-methylhexyl)-phenyl]-2,2-dimethylhexanoic acid] | 67.29 | 97.44 | 71.71 | 103.59 | 42.74 | 91.15 | * | approximately dose proportional | 142 | 2 | 2030 | 406 | 4 | 7880 | – | 7,880,000 h*ng/mL
